No end group written: not given here.
Key:
Male Wistar rats [1] = test: Locomotor activity and learning in maze paradigm (escape from 1.5 mA shock area), i.c.v. injection; assay type: in vivo
Procedure: The animals had to learn to escape from the shock area in order to avoid a continuous 1.5 mA electric shock. Experimental time --30 minutes.
The rats were treated intracerebroventricularly with SS-14 (1 mcg) and GRF1-44 (1 mcg) and their behavior was automatically recorded by computer using the maze paradigm shown in FIG. 1. p/t denotes pulses per time unit (minute). Locomotor activity was quantified in pulses per minute or cm^2 /min. Total inputs (I/O) in neutral position (white bars) and shock position (black bars) denote how many times the animals enter neutral and shock areas. The N/S ratio results from dividing I/O in neutral position by I/O in shock position and is interpreted as an index of learning in the 30-minute experimental period. The positional time (seconds) represents how long the animals stay in neutral (white bars) or shock (black bars) areas. N-sp and S-sp (in seconds) indicate the time-latency per movement or input in neutral (white bars) and shock (black bars) areas, respectively.
(§1) To clarify whether SS and GRF display at the central level the same antagonistic effect that they have at the pituitary level, the effects of these neuropeptides on several behavioral parameters have been studied using the OUCEM-86^TM (Osaka University Computerized Electronic Maze). The system is integrated by the following components: a Programmable Electronic Platform (PEP) (620×620 mm) equipped with 48 photo beam sensors (OPX-T30); a Programming Panel (PP) (Model BECM-0064) for paradigm stimulation; a Shock Generator Scrambler (SGS) (Model BSG-1065) to apply continuous or discontinuous electric current to the PEP; a Control Station (CS) (BEC 16-Bio Computer Control Station BCS-1105; Bio Medica, Ltd., Osaka) which processes inputs/outputs as an interface device to automatically computerize behavioral parameters; and a Computer System (NEC PC-9801 VM2) with 1 megabyte Random Access Memory (RAM) for data processing and experimental setting.
(§2) Male Wistar rats (175-200 g) (N =5-8 rats/group) received intracerebroventricular (i.c.v.) injections of GRF1-44 and SS-14 over a range of 0.1 to 10 mcg. Then the rats were studied in the OUCEM under two different paradigms (e.g., open field and maze paradigms).
The amount of inputs (I/O) induced by SS was 103.5±29.5 (control =216.25±55.19, t=8.49, p<0.005) in the neutral area (NA) and 77.14±13.5 I/O in the shock area (SA) (control =298±40, t=1.26, n.s.). GRF generated 459.35±32.5 I/O in NA (t=18.13, p<0.005) and 340.5±63.5 I/O in SA (t=9.07, p<0.005) (FIGS. 1C,3). The NA/SA (N/S) ratios for control, SS- and GRF-treated rats were 0.72, 1.33, and 1.35, respectively (FIG. 2).

Male Wistar rats [2] = test: Locomotor activity in open field paradigm (OUCEM-86), i.c.v. injection; assay type: in vivo; details: for ED50 of change in LA / Emax of change in LA (given as a dose): i.c.v., dose range 0.1 to 10 mcg
Excerpt: as §1, §2
The animals were placed in the PEP for 30-minute periods and locomotor activity (LA) was automatically recorded in an open field paradigm. Total LA is represented as total inputs (I/O) including movements in four-footed position (4F) and in two-footed position (2F), grooming, rearing and jumping activity, while linear (horizontal) movements (4F) are represented as pulses per minute (pm) or cm^2 /min

[3] = test system: female in-patients with primary degenerative dementia (Alzheimer like); test: 8-day GRF (1-29) NH2 therapy, MMS Folstein test and Crichton's scale; assay type: in vivo, human; details: MMS-Folstein test and Crichton's scale test
Procedure: Twenty female in-patients with primary degenerative dementia (Alzheimer like) aged 67-84 years were divided in two therapy-groups with GRF (1-29) NH2. All patients were treated with this product for 8 days with either of the following schedules: (I) 250 mcg s.c. twice daily (II) 50 mcg i.v. twice daily Therapy was started after a 15-day wash-out period for psychotropic-drugs. Evolution of patients was assessed using the MMS Folstein test and Chrichton's scale test at 12 hours, 24 hours and 7 days after starting with GRF. The statistical evaluation was made using Friedman test with a risk level p<0,01 (highly significant differences).

| Compound | locomotor activity (LA), maze paradigm (Male Wistar rats [1]; 1 mcg i.c.v., 30 minutes, control 17.12±5.42 pm) | NA/SA (N/S) ratio (index of learning) (Male Wistar rats [1]; 1 mcg i.c.v., control 0.72) | amount of inputs (I/O) in the neutral area (NA) (Male Wistar rats [1]; 1 mcg i.c.v., control 216.25±55.19) | amount of inputs (I/O) in the shock area (SA) (Male Wistar rats [1]; 1 mcg i.c.v., control 298±40) | learning abilities (N/S ratio as index) (Male Wistar rats [1]; doses of approximately 6.10×10^-10 mol (SS) and 1.98×10^-10 mol (GRF), i.c.v.) | comparison of SS and GRF in improving learning (Male Wistar rats [1]; maze paradigm, i.c.v.) | locomotor activity (LA), open field (Male Wistar rats [2]; 1 mcg i.c.v. (SS-14 / GRF1-44), 30-minute period, control 31.16±6.90 pm) | ED50 of change in LA (Male Wistar rats [2]) | Emax of change in LA (given as a dose) (Male Wistar rats [2]) | overall effect confirmed by re-evaluation after end of administration [3] |
| --- | --- | --- | --- | --- | --- | --- | --- | --- | --- | --- |
| C[C@H](N)C(=O)NCC(=O)N[C@H]1CSSC[C@@H](C(=O)O)NC(=O)[C@H](CO)NC(=O)[C@H]([C@@H](C)O)NC(=O)[C@H](Cc2ccccc2)NC(=O)[C@H]([C@@H](C)O)NC(=O)[C@H](CCCCN)NC(=O)[C@H](Cc2c[nH]c3ccccc23)NC(=O)[C@H](Cc2ccccc2)NC(=O)[C@H](Cc2ccccc2)NC(=O)[C@H](CC(N)=O)NC(=O)[C@H](CCCCN)NC1=O [SS, somatostatin] | 6.01±1.45 pm | 1.33 | 103.5±29.5 I/O | 77.14±13.5 I/O | improve learning abilities | more effective than GRF in improving learning | 20.88±2.82 pm | 1830 pmol | 6.10 nmol | – |
| GRF (1-29) NH2: GRF product given s.c. or i.v. to dementia patients; called GRF in Example 3 (YADAIFTNSYRKVLGQLSARKLLQDIMSR-NH2; UniProt P01286 32-60, looked up, fragment) | – | – | – | – | – | – | – | – | – | significant effect |
| GRF1-29: 1-29 segment of growth hormone releasing factor | – | – | – | – | – | – | – | 297 pmol | 5.95 nmol | – |
| GRF1-44: 1-44 segment of growth hormone releasing factor, injected i.c.v. in rats; called GRF in Examples 1-2 | – | – | – | – | – | – | – | 99.1 pmol | 1.98 nmol | – |

— patent publication US4939124A, “Treatment and diagnosis of dementia” (Laboratorios Serono S.A., priority 1988, dated 1990)
